Drawing on patent US10280165B2, “Pyridopyrimidinones and methods of use thereof” (Genentech, Inc., priority 2015, dated 2019), this text covers Emax and EC50 for 23 molecules.

One may read the EC50 as the concentration that produces a half-maximal response.

The target of this experiment is HEK cells stably transfected with tetracycline inducible hNR1 and hNR2A (Homo sapiens (Human), UniProt Q05586+Q12879). In words: Assay 1: Cell-Based Assay (cytosolic calcium, positive allosteric modulation). The conditions noted are these: for Emax: HEK293, scaled relative to 100 μM L-glutamate maximal response (100%) and 0 μM L-glutamate (0%), with 30 μM glycine and 300 nM L-glutamate, read-out: Max %; for EC50: with 30 μM glycine and 300 nM L-glutamate (EC30), given for compounds reaching maximal response plateaus. Here is the method:
Assay 1: Cell-Based Assay
HEK cells stably transfected with tetracycline inducible hNR1 and hNR2A were seeded into clear bottom 384 well poly-D-lysine coated plates (2.5×10^4 cells per well) in Minimum Essential Media (MEM; without L-) including 7.5 μg mL doxycycline and 500 μM (+)-ketamine. The cells were incubated at 37° C. in 5% CO2 for 24 h. For measurement of changes in cytosolic calcium, the seeding media was removed and the cells incubated at 37° C. for 60 min with 1× Becton Dickinson Calcium Assay Kit reagent in Hanks Balanced Salt Solution (HBSS; w/o magnesium, including 1.8 mM calcium, 0.65 mg ml^−1 probenecid and 10 μM (+)-ketamine, pH 7.15) then allowed to equilibrate to rt for 30 min. Concentration-effect curves to Positive Allosteric Modulators (PAMs) were constructed by adding different concentrations (with 30 μM glycine and 300 nM L-glutamate (EC30)) to different wells in HBSS. Compounds were added after a 10 second baseline read and maximum level of relative fluorescence units (RFU) was measured over a 5 min period. Responses were scaled relative to 100 μM L-glutamate maximal response (100%) and 0 μM L-glutamate (0%). EC50 values are provided for compounds reaching maximal response plateaus, and the max % (EC50 (--)) only if no plateau was reached.
A four-parameter Hill equation was fitted to individual concentration-effect curves:
[formula] in which Y, S0, Sinf, AC50, n and c were effect, lower-asymptote, upper-asymptote, mid-point location, slope parameter, and concentration respectively.

Sequence of HEK cells stably transfected with tetracycline inducible hNR1 and hNR2A (Q12879 23-1464, other chains not shown): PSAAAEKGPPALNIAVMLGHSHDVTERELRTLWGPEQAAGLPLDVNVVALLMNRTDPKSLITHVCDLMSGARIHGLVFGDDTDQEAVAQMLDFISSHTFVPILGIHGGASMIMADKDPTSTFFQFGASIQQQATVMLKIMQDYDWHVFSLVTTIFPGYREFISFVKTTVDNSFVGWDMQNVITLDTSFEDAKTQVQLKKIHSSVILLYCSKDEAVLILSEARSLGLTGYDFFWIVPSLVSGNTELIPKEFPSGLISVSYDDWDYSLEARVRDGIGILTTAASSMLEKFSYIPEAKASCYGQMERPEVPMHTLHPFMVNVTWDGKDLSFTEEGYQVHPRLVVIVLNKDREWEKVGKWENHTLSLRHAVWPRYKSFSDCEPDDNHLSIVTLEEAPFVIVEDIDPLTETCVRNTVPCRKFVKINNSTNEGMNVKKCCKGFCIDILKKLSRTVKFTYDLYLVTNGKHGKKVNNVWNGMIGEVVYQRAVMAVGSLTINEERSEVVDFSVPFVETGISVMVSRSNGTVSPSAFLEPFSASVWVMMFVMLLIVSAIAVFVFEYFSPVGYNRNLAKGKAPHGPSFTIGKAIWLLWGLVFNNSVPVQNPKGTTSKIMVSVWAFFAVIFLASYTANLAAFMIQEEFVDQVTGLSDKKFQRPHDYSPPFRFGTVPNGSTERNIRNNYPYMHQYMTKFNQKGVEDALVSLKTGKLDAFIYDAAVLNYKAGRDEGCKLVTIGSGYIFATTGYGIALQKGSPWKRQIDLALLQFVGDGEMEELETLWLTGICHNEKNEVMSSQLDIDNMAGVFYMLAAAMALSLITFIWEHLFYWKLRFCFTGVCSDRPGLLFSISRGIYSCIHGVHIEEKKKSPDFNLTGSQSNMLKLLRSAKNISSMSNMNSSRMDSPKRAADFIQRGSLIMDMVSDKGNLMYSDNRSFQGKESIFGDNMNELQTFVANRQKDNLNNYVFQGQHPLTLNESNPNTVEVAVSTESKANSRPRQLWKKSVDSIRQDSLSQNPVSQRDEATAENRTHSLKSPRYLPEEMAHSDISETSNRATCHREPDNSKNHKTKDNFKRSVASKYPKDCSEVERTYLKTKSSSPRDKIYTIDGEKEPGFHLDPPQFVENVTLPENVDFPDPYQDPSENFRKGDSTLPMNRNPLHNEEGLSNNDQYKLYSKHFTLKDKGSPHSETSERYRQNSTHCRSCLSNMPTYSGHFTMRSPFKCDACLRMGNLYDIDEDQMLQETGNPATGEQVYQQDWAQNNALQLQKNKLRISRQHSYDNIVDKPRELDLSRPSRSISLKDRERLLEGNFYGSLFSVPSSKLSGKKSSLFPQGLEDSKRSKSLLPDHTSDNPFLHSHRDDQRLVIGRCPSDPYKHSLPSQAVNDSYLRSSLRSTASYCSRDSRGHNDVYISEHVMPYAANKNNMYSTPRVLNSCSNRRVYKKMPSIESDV

As to `Cc1ccc2nc(CN(C)c3ccccc3)cc(=O)n2c1` [Compound 2, 7-methyl-2-[(N-methylanilino)methyl]pyrido[1,2-a]pyrimidin-4-one], the Emax is 75%.

In the case of `CCN(Cc1cc(=O)n2c(C#N)cccc2n1)c1ccc(F)cc1` [Compound 14, 2-[(N-ethyl-4-fluoro-anilino)methyl]-4-oxo-pyrido[1,2-a]pyrimidine-6-carbonitrile], the Emax is 163% and the EC50 worked out at 5.8 µM. As for `COc1ccc2nc(Cn3nc(C(F)(F)F)cc3Cl)cc(=O)n2c1[C@H]1C[C@@H]1C#N` [Compound 53, (1S,2S)-2-[2-[[5-chloro-3-(trifluoromethyl)pyrazol-1-yl]methyl]-7-methoxy-4-oxo-pyrido[1,2-a]pyrimidin-6-yl]cyclopropanecarbonitrile], the Emax was determined as 100%. Regarding `Cc1cc([C@@H]2C[C@H]2C#N)n2c(=O)cc(Cn3nc(Cl)cc3Cl)nc2c1` [Compound 57, (1R,2R)-2-(2-((3,5-dichloro-1H-pyrazol-1-yl)methyl)-8-methyl-4-oxo-4H-pyrido[1,2-a]pyrimidin-6-yl)cyclopropanecarbonitrile], the Emax was determined as 154% and the half-maximal effective concentration (EC50) is 0.222 µM.

Consider `CCN(Cc1cc(=O)n2c(Br)cccc2n1)c1ccc(F)cc1` [Compound 15, 6-bromo-2-[(N-ethyl-4-fluoro-anilino)methyl]pyrido[1,2-a]pyrimidin-4-one], for which the Emax turned out to be 159% and the EC50 is 6.2 µM. On to `COc1ccc2nc(Cn3nc(Cl)cc3Cl)cc(=O)n2c1C1CC1C` (stereo not shown) [Compound 55, 2-((3,5-dichloro-1H-pyrazol-1-yl)methyl)-7-methoxy-6-(2-methylcyclopropyl)-4H-pyrido[1,2-a]pyrimidin-4-one], for which the Emax worked out at 116% and the concentration giving a half-maximal response (EC50) was found to be 0.102 µM. On the same counts, the results for `Cc1ccc2nc(Cn3nc(Cl)cc3C(F)(F)F)cc(=O)n2c1C1CC1C#N` (stereo not shown) [Compound 44, 2-[2-[[3-chloro-5-(trifluoromethyl)pyrazol-1-yl]methyl]-7-methyl-4-oxo-pyrido[1,2-a]pyrimidin-6-yl]cyclopropanecarbonitrile] are 158% and 0.227 µM. For `CNC(=O)c1c(C)ccc2nc(Cc3cccc(C#N)c3F)cc(=O)n12` [Compound 25, 2-[(3-cyano-2-fluoro-phenyl)methyl]-N,7-dimethyl-4-oxo-pyrido[1,2-a]pyrimidine-6-carboxamide], the Emax turned out to be 51%.

As to `CCNC(=O)c1c(C)ccc2nc(Cn3nc(C4CC4)cc3C(F)(F)F)cc(=O)n12` [Compound 18, 2-[[3-cyclopropyl-5-(trifluoromethyl)pyrazol-1-yl]methyl]-N-ethyl-7-methyl-4-oxo-pyrido[1,2-a]pyrimidine-6-carboxamide], the Emax stood at 122% and the concentration giving a half-maximal response (EC50) was 16.2 µM.

Take `CC(=O)c1c(C)ccc2nc(Cn3nc(C(F)(F)F)cc3Cl)cc(=O)n12` [Compound 50, 6-acetyl-2-[[5-chloro-3-(trifluoromethyl)pyrazol-1-yl]methyl]-7-methyl-pyrido[1,2-a]pyrimidin-4-one]: the Emax was determined as 124% and the EC50 was determined as 7.7 µM. On the same counts, the results for `CCNC(=O)c1c(C)ccc2nc(Cn3nc(C(F)(F)F)cc3C3CC3)cc(=O)n12` [Compound 17, 2-[[5-cyclopropyl-3-(trifluoromethyl)pyrazol-1-yl]methyl]-N-ethyl-7-methyl-4-oxo-pyrido[1,2-a]pyrimidine-6-carboxamide] are 148% and 4 µM.

For `Cc1ccc2nc(Cn3nc(C(F)(F)F)cc3Cl)cc(=O)n2c1[C@@H]1C[C@H]1CO` [Compound 36, 2-[[5-chloro-3-(trifluoromethyl)pyrazol-1-yl]methyl]-6-[(1R,2R)-2-(hydroxymethyl)cyclopropyl]-7-methyl-pyrido[1,2-a]pyrimidin-4-one], the Emax stood at 135% and the EC50 amounted to 0.126 µM. On the same counts, the results for `Cc1ccc2nc(Cn3nc(C(F)(F)F)cc3Cl)cc(=O)n2c1[C@H]1C[C@@H]1C#N` [Compound 34, (1S,2S)-2-[2-[[5-chloro-3-(trifluoromethyl)pyrazol-1-yl]methyl]-7-methyl-4-oxo-pyrido[1,2-a]pyrimidin-6-yl]cyclopropanecarbonitrile] are 99% and 25.5 µM.

Turning to `Cc1cc([C@H]2C[C@@H]2C#N)n2c(=O)cc(Cn3nc(C(F)(F)F)cc3Cl)nc2c1` [Compound 39, (1S,2S)-2-[2-[[5-chloro-3-(trifluoromethyl)pyrazol-1-yl]methyl]-8-methyl-4-oxo-pyrido[1,2-a]pyrimidin-6-yl]cyclopropanecarbonitrile], the Emax was found to be 120% and the EC50 came to 0.951 µM. On the same counts, the results for `CCc1cccc2nc(CN(CC)c3ccccc3)cc(=O)n12` [Compound 6, 6-ethyl-2-[(N-ethylanilino)methyl]pyrido[1,2-a]pyrimidin-4-one] are 138% and 11.5 µM.

Consider `CNC(=O)c1c(C)ccc2nc(Cc3cccc(C(F)(F)F)c3F)cc(=O)n12` [Compound 22, 2-[[2-fluoro-3-(trifluoromethyl)phenyl]methyl]-N,7-dimethyl-4-oxo-pyrido[1,2-a]pyrimidine-6-carboxamide], for which the Emax was found to be 69%. `CCc1cccc2nc(CN(CC)c3ccc(F)cc3)cc(=O)n12` [Compound 5, 6-ethyl-2-[(N-ethyl-4-fluoro-anilino)methyl]pyrido[1,2-a]pyrimidin-4-one]: the Emax amounted to 134% and the EC50 came out at 6.4 µM. On the same counts, the results for `CCN(Cc1cc(=O)n2c(-c3ccco3)cccc2n1)c1ccc(F)cc1` [Compound 13, 2-[(N-ethyl-4-fluoro-anilino)methyl]-6-(2-furyl)pyrido[1,2-a]pyrimidin-4-one] are 172% and 0.371 µM. With `CCN(Cc1cc(=O)n2c(C)cccc2n1)c1ccc(F)cc1` [Compound 7, 2-[(N-ethyl-4-fluoro-anilino)methyl]-6-methyl-pyrido[1,2-a]pyrimidin-4-one], the Emax was 111% and the concentration giving a half-maximal response (EC50) turned out to be 13.6 µM. For `CNC(=O)c1c(C)ccc2nc(Cc3cccc(Cl)c3F)cc(=O)n12` [Compound 23, 2-[(3-chloro-2-fluoro-phenyl)methyl]-N,7-dimethyl-4-oxo-pyrido[1,2-a]pyrimidine-6-carboxamide], the Emax amounted to 59%. Still for that read-out and setting: under `Cc1ccc2nc(Cn3nc(C(F)(F)F)cc3Cl)cc(=O)n2c1[C@H]1C[C@@H]1CO` [Compound 37, 2-[[5-chloro-3-(trifluoromethyl)pyrazol-1-yl]methyl]-6-[(1S,2S)-2-(hydroxymethyl)cyclopropyl]-7-methyl-pyrido[1,2-a]pyrimidin-4-one] stands 127%. For `N#C[C@H]1C[C@@H]1c1cccc2nc(Cn3nc(C(F)(F)F)cc3Cl)cc(=O)n12` [Compound 41, (1S,2S)-2-[2-[[5-chloro-3-(trifluoromethyl)pyrazol-1-yl]methyl]-4-oxo-pyrido[1,2-a]pyrimidin-6-yl]cyclopropanecarbonitrile], the Emax amounted to 111% and the EC50 was found to be 2.9 µM. As for `N#C[C@@H]1C[C@H]1c1cc(C(F)(F)F)cc2nc(Cn3nc(C(F)(F)F)cc3Cl)cc(=O)n12` [Compound 56, (1R,2R)-2-(2-((5-chloro-3-(trifluoromethyl)-1H-pyrazol-1-yl)methyl)-4-oxo-8-(trifluoromethyl)-4H-pyrido[1,2-a]pyrimidin-6-yl)cyclopropanecarbonitrile], the Emax amounted to 142% and the EC50 is 0.123 µM.
